We go through 43 compounds from paper PMC3199943, “Screening the MayBridge Rule of 3 Fragment Library for Compounds That Interact with the Trypanosoma brucei myo-Inositol-3-Phosphate Synthase and/or Show Trypanocidal Activity” (Molecular Biology International, 2011).

For assay [1], the system named is HeLa cells. Description: cells. To be noted: for viability at 500 µM: Homo sapiens, HeLa, 65 h, read-out: HeLa Cells Alamar Blue; for HeLa Cells Alamar Blue: Supplementary Table 1, compound 0.5 mM, percentage of controls, mean ± SD (n=3) or SE (n=2). A digest of the protocol: (§1)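 Alamar Blue read-out after a 5 h dye incubation that followed ~65 h compound exposure. Cells: HeLa or A549, 2 × 10^4/well, DMEM + 10% FCS + 2 mM L-Glutamine.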
A general note: Alamar Blue is a resazurin reagent that responds to reducing activity.

Assay [2] has as its target T1, TbINO1 (Trypanosoma brucei brucei, UniProt Q5QQ46).
T1 sequence (Q5QQ46 1-528): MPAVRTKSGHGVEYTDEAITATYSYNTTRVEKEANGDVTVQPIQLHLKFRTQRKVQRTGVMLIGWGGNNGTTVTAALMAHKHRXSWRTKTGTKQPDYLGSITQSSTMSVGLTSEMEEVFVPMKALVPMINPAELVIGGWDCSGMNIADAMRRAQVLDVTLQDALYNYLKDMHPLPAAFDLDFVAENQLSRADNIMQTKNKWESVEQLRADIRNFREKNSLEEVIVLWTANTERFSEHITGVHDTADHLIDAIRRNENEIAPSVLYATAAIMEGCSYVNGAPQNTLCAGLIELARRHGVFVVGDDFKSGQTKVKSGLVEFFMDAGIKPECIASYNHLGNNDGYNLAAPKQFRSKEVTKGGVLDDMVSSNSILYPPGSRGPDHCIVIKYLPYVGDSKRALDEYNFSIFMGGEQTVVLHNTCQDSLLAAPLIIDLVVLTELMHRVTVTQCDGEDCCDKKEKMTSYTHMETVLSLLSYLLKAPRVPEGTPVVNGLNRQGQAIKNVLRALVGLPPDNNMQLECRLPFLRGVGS
The experiment in a line: biochemical. To be noted: for ΔTm at 1000 µM: read-out: Tb Ino1 Tm Shift [˚C]; for TbINO1 Tm increase: positive control. Type of assay: binding.

Assay [3] has as its system A549 cells. Description: Cytotoxicity against A549 cells, Alamar Blue. Type of assay: cell-based. The conditions noted are these: Supplementary Table 1, compound 0.5 mM, percentage of controls (n=1); for viability at 500 µM: Homo sapiens, A549, 65 h. An outline of the steps: as §1

Turning to `OCc1ccc(-c2ccccn2)s1` [compound 556, [5‐(2‐pyridinyl)‐2‐thienyl]methanol], the values for the viability at 500 µM in assay [1] and in assay [3] were 70.2 ± 11% and 93.9%, respectively. Further, the ΔTm at 1000 µM in assay [2] was 0.19 ± 0.08 °C.
On to `CN1N=C(C(F)(F)F)CC1=O` [compound 315, 1‐methyl‐3‐(trifluoromethyl)‐4,5‐dihydro‐1H‐pyrazol‐5‐one], for which the “HeLa Cells Alamar Blue” value in assay [1] was 109.2 ± 4.4 percentage of controls. Moreover, the “Tb Ino1 Tm Shift [˚C]” value in assay [2] (Supplementary Table 1, compound 1mM, mean ± SD from Boltzman curve fitting) came out at 0.09 ± 0.08 °C. Further, the “A549 Cells Alamar Blue” value in assay [3] is on record as 88.3 percentage of controls.
In the case of `Cc1csc2ncnc(Cl)c12` [compound 486, 4‐chloro‐5‐methylthieno[2,3‐d]pyrimidine], the viability at 500 µM is 101 ± 12.2% in assay [1] and 111% in assay [3]. The ΔTm at 1000 µM in assay [2] was 0.24 ± 0.07 °C.
For `O=C[C@H](O)[C@@H](O)[C@H](O)[C@H](O)COP(=O)(O)O` [glucose-6-phosphate, reference compound], in assay [2] (substrate, 5 mM), the “TbINO1 Tm increase” value is 0.70 ± 0.28 °C.
Take `O=CC[C@@H](O)[C@H](O)[C@H](O)COP(=O)(O)O` [2-deoxy-glucose-6-phosphate, reference compound]: the “TbINO1 Tm increase” value in assay [2] (inhibitor, 4 mM) amounted to 2.84 ± 0.47 °C.
Turning to `Cn1nc(-c2ccccc2)cc1CO` [compound 524, (1‐methyl‐3‐phenyl‐1H‐pyrazol‐5‐yl)methanol], the “HeLa Cells Alamar Blue” value in assay [1] is 88.2 ± 10.3 percentage of controls. In addition, the “A549 Cells Alamar Blue” value in assay [3] is 60.7 percentage of controls.
Regarding `Nc1ccccc1-n1cccn1` [compound 260, 2‐(1H‐pyrazol‐1‐yl)aniline], the viability at 500 µM in assay [1] was 98.1 ± 5.6%; in assay [3], 97.3%.
As for `CC12CCC(CC1=NO)C2(C)C` (stereo not drawn) [compound 332, 1,7,7‐trimethylbicyclo[2.2.1]heptan‐2‐one oxime], the “HeLa Cells Alamar Blue” value in assay [1] is 110.6 ± 8.3 percentage of controls. In addition, in assay [3], the “A549 Cells Alamar Blue” value is 93.9 percentage of controls.
Consider `OCC1Cc2ccccc2O1` (stereo not drawn) [compound 187, 2,3‐dihydro‐1‐benzofuran‐2‐ylmethanol], for which the viability at 500 µM was 94.3 ± 13.3% in assay [1] and 50.5% in assay [3].
The matching figures for `NCCOc1ccccc1` [compound 122, 2‐phenoxyethylamine]: 73.6 ± 5.4% and 100%.
The like results for `OCc1csc(-c2ccccc2)n1` [compound 557, (2‐phenyl‐1,3‐thiazol‐4‐yl)methanol] were, in that order, 58.1 ± 13.4% and 78.4%.
The matching figures for `Nc1ccc2[nH]ncc2c1` [compound 101, 1H‐indazol‐5‐amine]: 31.7 ± 16.2% and 70.6%.
For `COc1cc2c(cc1OC)C(C)=NCC2` [compound 664, 6,7‐dimethoxy‐1‐methyl‐3,4‐dihydroisoquinoline], in assay [1], the “HeLa Cells Alamar Blue” value is reported as 75.4 ± 2.2 percentage of controls. Moreover, the “A549 Cells Alamar Blue” value in assay [3] was 77.7 percentage of controls.
Consider `Nc1ccncc1` [compound 2, pyridin‐4‐amine], for which the viability at 500 µM in assay [1] amounted to 103 ± 2.2%; in assay [3], 106%.
The matching figures for `O=C(C1CCCNC1)N1CCCC1` (stereo not drawn) [compound 468, 3‐piperidinyl(1‐pyrrolidinyl)methanone]: 110 ± 13.3% and 80.7%.
The like results for `OCC1CCc2ccccc2O1` (stereo not drawn) [compound 299, 3,4‐dihydro‐2H‐chromen‐2‐ylmethanol] were, in that order, 85.1 ± 14.7% and 80.3%.
The like results for `CNCc1ccc(Cl)cc1` [compound 231, N‐(4‐chlorobenzyl)‐N‐methylamine] were, in that order, 113 ± 3.7% and 107%.
As to `O=C(O)c1cc2ccccc2[nH]1` [compound 275, 1H‐indole‐2‐carboxylic acid], the viability at 500 µM in assay [1] was 89.7 ± 16.4%; in assay [3], 67.3%.
Turning to `CC1(C)Cc2cccc(CO)c2O1` [compound 434, (2,2‐dimethyl‐2,3‐dihydro‐1‐benzofuran‐7‐yl)methanol], the “HeLa Cells Alamar Blue” value in assay [1] is 80.2 ± 12 percentage of controls. Moreover, the “A549 Cells Alamar Blue” value in assay [3] is given as 51.1 percentage of controls.
For `Fc1ccc(N2CCNCC2)cc1` [compound 457, 1‐(4‐fluorophenyl)piperazine], the viability at 500 µM in assay [1] came to 12.7 ± 10.1%; in assay [3], 74.7%.
As for `CNCc1ccnc(N2CCCCC2)c1` [compound 671, N‐methyl‐N‐[(2‐piperidin‐1‐ylpyridin‐4‐yl)methyl]amine], the “HeLa Cells Alamar Blue” value in assay [1] is 54.8 ± 9.2 percentage of controls. For the same compound, the “A549 Cells Alamar Blue” value in assay [3] is on record as 82.7 percentage of controls.
On to `NCc1ccc(F)c(Cl)c1` [compound 264, 3‐chloro‐4‐fluorobenzylamine], for which the viability at 500 µM in assay [1] was 47.5 ± 13.5%; in assay [3] it was 88.4%.
The like results for `NCc1ccc(F)cc1` [compound 71, 4‐fluorobenzylamine] were, in that order, 93.3 ± 10.3% and 110%.
The like results for `CCCc1ccc(NC(C)=O)cc1` [compound 426, N1‐(4‐propylphenyl)acetamide] were, in that order, 89.8 ± 10.8% and 71.7%.
The like results for `N#Cc1ccc(N2CCNCC2)cc1` [compound 518, 4‐Piperazin‐1‐yl‐benzonitrile] were, in that order, 92.1 ± 11% and 84.7%.
`O=C(O)c1cccc2c1OCC2` [compound 297, 2,3‐dihydrobenzo[b]furan‐7‐carboxylic acid]: in assay [1], the “HeLa Cells Alamar Blue” value is 78.8 ± 7.5 percentage of controls. In addition, in assay [3], the “A549 Cells Alamar Blue” value is 74.9 percentage of controls.
For the compound `Cc1ccc(CO)cc1C` [compound 119, (3,4‐dimethylphenyl)methanol], the viability at 500 µM in assay [1] stood at 84.7 ± 15.3%; in assay [3], 124%.
The matching figures for `OCc1ccccc1Oc1ccccc1` [compound 621, (2‐phenoxyphenyl)methanol]: 74.9 ± 14.8% and 73.7%.
The matching figures for `N#Cc1ccc(-c2ccco2)nc1` [compound 344, 6‐(2‐furyl)nicotinonitrile]: 48.9 ± 5% and 104%.
The matching figures for `NC(=S)COc1cccc(Cl)c1` [compound 633, 2‐(3‐chlorophenoxy)ethanethioamide]: 46.9 ± 11.1% and 90.3%.
On to `CCOC(=O)c1sc(Cl)nc1C` [compound 672, ethyl 2‐chloro‐4‐methyl‐1,3‐thiazole‐5‐carboxylate], for which the “HeLa Cells Alamar Blue” value in assay [1] is on record as 89.6 ± 12.5 percentage of controls. In addition, the “A549 Cells Alamar Blue” value in assay [3] is 60.5 percentage of controls.
Consider `OCCc1cccnc1` [compound 63, 2‐(3‐pyridyl)ethan‐1‐ol], for which the viability at 500 µM in assay [1] stood at 105 ± 13.1%; in assay [3], 76.9%.
The matching figures for `COc1ccccc1CCC(=O)O` [compound 452, 3‐(2‐methoxyphenyl)propanoic acid]: 97.3 ± 7.2% and 61.6%.
The matching figures for `Cn1cccc1C(=O)O` [compound 69, 1‐methyl‐1H‐pyrrole‐2‐carboxylic acid]: 95.3 ± 2.5% and 70.2%.
`Cn1nc(CO)c2ccccc21` [compound 286, (1‐methyl‐1H‐indazol‐3‐yl)methanol]: the results for the viability at 500 µM in assay [1] and in assay [3] were 90.9 ± 3.1% and 73.2%, respectively.
The matching figures for `O=C(O)c1cccc(-c2ccsc2)c1` [compound 650, 3‐thien‐3‐ylbenzoic acid]: 114 ± 15.9% and 165%.
The matching figures for `CNCc1cccc(-c2nccs2)c1` [compound 653, N‐methyl‐3‐(1,3‐thiazol‐2‐yl)benzylamine]: 93.3 ± 2.7% and 99.6%.
Take `FC(F)(F)C1=NCCNC=C1` [compound 295, 5‐(trifluoromethyl)‐2,3‐dihydro‐1H‐1,4‐diazepine]: the “HeLa Cells Alamar Blue” value in assay [1] is listed as 75.2 ± 18.7 percentage of controls. Also, the “A549 Cells Alamar Blue” value in assay [3] is 72.1 percentage of controls.
Regarding `OCc1cc(-c2cccs2)[nH]n1` [compound 459, (5‐thien‐2‐yl‐1H‐pyrazol‐3‐yl)methanol], the viability at 500 µM in assay [1] stood at 27.8 ± 10.9%; in assay [3], 85%.
The like results for `N#Cc1cnccc1C(F)(F)F` [compound 358, 4‐(trifluoromethyl)nicotinonitrile] were, in that order, 103 ± 1.7% and 129%.
As for `Clc1cn2ccsc2n1` [compound 253, 6‐chloroimidazo[2,1‐b][1,3]thiazole], the viability at 500 µM came out at 82.1% in assay [1] and 85.1% in assay [3].
The matching figures for `O=C(O)C1CCOCC1` [compound 92, tetrahydro‐2H‐pyran‐4‐carboxylic acid]: 78.4 ± 15.8% and 118%.
As to `Cc1nc(CCN)cs1` [compound 141, 2‐(2‐methyl‐1,3‐thiazol‐4‐yl)ethylamine], the values for the viability at 500 µM in assay [1] and in assay [3] were 98.9 ± 7.6% and 105%, respectively.
